# Measurements from article PMC10205683, “Structure Based Discovery of Inhibitors of CYP125 and CYP142 from Mycobacterium tuberculosis” (Chemistry (Weinheim an Der Bergstrasse, Germany), 2023).
# Assays:
# CYP125 = target: T1, CYP125 (Mycobacterium tuberculosis, UniProt P9WPP1); assay: biochemical; type: binding; details: UV-Vis spectroscopy
# T1 construct: encoding residues 18-433; twin-strep hexahistidine tag (TEV-cleavable) (N, cleaved yes); made in house; host or cells: E. coli C41(DE3), pET21a
# T1 sequence (P9WPP1 18-433 limits assumed): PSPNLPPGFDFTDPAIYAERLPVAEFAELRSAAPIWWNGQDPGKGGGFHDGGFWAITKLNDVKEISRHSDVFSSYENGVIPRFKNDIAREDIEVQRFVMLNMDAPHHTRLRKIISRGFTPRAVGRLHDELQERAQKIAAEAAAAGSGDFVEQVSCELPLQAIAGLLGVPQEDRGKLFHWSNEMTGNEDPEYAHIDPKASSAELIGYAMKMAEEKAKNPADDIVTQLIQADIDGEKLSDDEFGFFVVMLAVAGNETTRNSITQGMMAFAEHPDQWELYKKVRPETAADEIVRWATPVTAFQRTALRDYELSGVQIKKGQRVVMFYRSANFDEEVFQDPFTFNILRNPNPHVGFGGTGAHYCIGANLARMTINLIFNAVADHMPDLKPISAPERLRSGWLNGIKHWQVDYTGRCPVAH
# CYP142 = target: T2, CYP142 (Mycobacterium tuberculosis, UniProt P9WPL5); assay: biochemical; details: UV-Vis spectroscopy
# T2 sequence (P9WPL5 2-398): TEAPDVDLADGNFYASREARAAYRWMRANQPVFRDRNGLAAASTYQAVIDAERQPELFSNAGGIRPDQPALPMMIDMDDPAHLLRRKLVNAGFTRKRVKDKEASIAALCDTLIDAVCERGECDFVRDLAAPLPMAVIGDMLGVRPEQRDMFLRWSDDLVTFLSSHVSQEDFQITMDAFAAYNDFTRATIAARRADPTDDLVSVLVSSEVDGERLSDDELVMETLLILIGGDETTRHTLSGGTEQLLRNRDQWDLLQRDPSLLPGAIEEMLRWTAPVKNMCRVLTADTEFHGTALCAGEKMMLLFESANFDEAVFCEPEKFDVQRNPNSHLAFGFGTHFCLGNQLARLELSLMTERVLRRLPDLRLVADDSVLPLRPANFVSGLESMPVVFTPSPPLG
SMILES,Kd (CYP125) [nM],Kd (CYP142) [nM]
NCc1ccc(-c2cnns2)cc1 [Compound 1],57700,610
COc1ccc(-c2ccncc2)cc1 [Compound 2],58500 ± 3800,1600 ± 100
COC(=O)c1cccc(-c2ccncc2)c1 [Compound 3],146000,1500
"CCOC(=O)c1cc2cc(-c3ccncc3)ccc2[nH]1 [Compound 4, ethyl 5‐(pyridin‐4‐yl)‐1H‐indole‐2‐carboxylate]",3000,750
CCOC(=O)c1cc2cc(-c3ccncc3)ccc2n1Cc1ccccc1 [Compound 5],650 ± 60,40 ± 10
CCOC(=O)c1cc2cc(-c3ccncc3)ccc2n1C(=O)c1ccccc1 [Compound 6],120 ± 40,420 ± 80
CCOC(=O)c1cc2cc(-c3ccncc3)ccc2n1CC1CCCCC1 [Compound 7],310 ± 30,50 ± 10
CCOC(=O)c1cc2cc(-c3ccncc3)ccc2n1CC1CCCC1 [Compound 8],300 ± 60,60 ± 10
CCOC(=O)c1cc2cc(-c3ccncc3)ccc2n1CC1CCC1 [Compound 9],1100 ± 200,90 ± 10
CCOC(=O)c1cc2cc(-c3ccncc3)ccc2n1CCC1CCNCC1 [Compound 10],5000 ± 200,390 ± 60
